In patent US20240336602A1 (Katholieke Universiteit Leuven, priority 2020, published 2024):

What follows are compounds tested against T1, mouse TRPM3a2 (mTRPM3) ion channel (Mus musculus, UniProt J9SQF3) (assay: TRPM3 ion channel driven Ca2+ uptake, Fluo-4 AM assay (PS-stimulated, overexpressing flip-in HEK293 cells)). Conditions: PS (50 μM) stimulated Ca2+ influx, HEK293, cpds 300-399.
T1 construct: expressed in transfected cells; host or cells: flip-in HEK293
T1 sequence (J9SQF3 1-1709 isoform J9SQF3-12): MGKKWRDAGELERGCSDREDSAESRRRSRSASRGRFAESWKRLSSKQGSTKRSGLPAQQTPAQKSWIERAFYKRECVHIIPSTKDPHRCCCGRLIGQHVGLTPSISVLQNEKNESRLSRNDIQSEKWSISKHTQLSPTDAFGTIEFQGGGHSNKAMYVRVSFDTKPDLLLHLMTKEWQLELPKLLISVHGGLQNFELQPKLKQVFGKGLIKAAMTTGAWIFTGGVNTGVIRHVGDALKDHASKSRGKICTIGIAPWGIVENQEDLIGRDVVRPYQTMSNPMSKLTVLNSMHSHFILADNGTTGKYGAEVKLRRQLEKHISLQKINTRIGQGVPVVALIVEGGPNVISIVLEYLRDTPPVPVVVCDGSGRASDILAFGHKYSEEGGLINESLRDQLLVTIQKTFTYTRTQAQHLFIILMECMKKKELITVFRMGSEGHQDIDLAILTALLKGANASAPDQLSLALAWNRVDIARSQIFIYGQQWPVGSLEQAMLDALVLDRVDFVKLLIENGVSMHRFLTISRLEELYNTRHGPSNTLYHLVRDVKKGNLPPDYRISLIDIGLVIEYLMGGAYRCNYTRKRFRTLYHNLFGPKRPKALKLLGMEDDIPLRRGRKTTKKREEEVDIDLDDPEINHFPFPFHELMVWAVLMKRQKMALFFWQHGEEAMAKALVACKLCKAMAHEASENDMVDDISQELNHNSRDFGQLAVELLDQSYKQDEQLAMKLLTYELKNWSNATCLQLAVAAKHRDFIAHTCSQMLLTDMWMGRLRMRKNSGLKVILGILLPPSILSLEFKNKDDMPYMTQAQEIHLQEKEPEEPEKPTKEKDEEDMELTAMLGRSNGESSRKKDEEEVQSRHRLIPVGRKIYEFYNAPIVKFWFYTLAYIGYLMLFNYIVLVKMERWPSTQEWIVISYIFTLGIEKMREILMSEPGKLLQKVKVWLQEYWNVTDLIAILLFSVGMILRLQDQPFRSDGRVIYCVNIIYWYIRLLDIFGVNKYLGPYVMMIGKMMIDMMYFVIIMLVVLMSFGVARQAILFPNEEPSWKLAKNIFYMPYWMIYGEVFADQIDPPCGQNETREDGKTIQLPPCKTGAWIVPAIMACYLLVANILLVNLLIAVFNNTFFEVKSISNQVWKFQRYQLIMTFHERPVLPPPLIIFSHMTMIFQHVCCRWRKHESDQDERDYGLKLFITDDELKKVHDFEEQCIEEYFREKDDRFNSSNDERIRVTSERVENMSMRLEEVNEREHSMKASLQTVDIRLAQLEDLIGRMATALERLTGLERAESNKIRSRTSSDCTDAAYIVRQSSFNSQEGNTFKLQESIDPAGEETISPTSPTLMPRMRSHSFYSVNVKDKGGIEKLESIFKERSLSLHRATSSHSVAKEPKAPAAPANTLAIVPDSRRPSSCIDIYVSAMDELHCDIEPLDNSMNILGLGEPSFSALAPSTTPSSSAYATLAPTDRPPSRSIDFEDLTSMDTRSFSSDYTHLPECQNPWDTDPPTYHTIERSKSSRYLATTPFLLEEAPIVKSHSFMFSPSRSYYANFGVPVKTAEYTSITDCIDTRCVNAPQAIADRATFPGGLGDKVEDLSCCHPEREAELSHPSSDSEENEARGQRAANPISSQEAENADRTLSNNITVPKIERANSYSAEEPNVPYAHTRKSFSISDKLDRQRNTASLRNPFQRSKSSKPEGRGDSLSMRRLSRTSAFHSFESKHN
Type: cell-based
Method: In order to monitor the inhibition of the mouse TRPM3a2 (mTRPM3) ion channel by the compounds of the invention, a cellular system making use of an mTRPM3alpha2 or hTRPM3 overexpressing cell line (flip-in HEK293) was used. The TRPM3 channel was stimulated/opened with Pregnenolone sulfate (PS) (50 μM) which results in Ca^2+ influx.
For mTRPM3, the intracellular Ca^2+ was measured with a Calcium responsive dye, Fluor-4 AM ester (Invitrogen). Cells were cultured until a confluence of 80-90%, washed with Versene (Invitrogen) and detached from the surface by a short incubation with 0.05% Trypsin (Invitrogen). The trypsination process was stopped by the addition of complete cell culture medium (DMEM, glutamax, 10% FCS, NEAA, Pen-Strep). Cells were collected and resuspended in Krebs buffer without Calcium at RT.
Prior the cell seeding (±2000 cells/well into a black, 384 well plate (Greiner)) the diluted compound was added in the assay plate, together with the PS dissolved in Krebs buffer containing Calcium. […] Directly after cell addition the plates were read on an Envision fluorescence reader (Perkin Elmer) by an Excitation of 485 nm and emission at 535 nm.
Channel inhibition was calculated compared to a non-PS stimulated control versus a condition stimulated with PS (50 μM) with vehicle. The ability of the compounds of the invention to inhibit this activity was determined as: Percentage inhibition=[1-((RFU determined for sample with test compound present—RFU determined for sample with positive control inhibitor) divided by (RFU determined in the presence of vehicle—RFU determined for sample with positive control inhibitor))]*100.
Work on `Cc1oc2ccc(OCc3nccn3CC(F)F)cc2c1C(=O)NC1(CO)CCOCC1` [cpd 331, 5-((1-(2,2-difluoroethyl)-1H-imidazol-2-yl)methoxy)-N-(4-(hydroxymethyl)tetrahydro-2H-pyran-4-yl)-2-methylbenzofuran-3-carboxamide] yielded an IC50 of 1000 to 20000 nM.
With `COc1ncccc1COc1cc(F)c2oc(C)c(C(=O)NC3(CO)CCOCC3)c2c1` [cpd 369, 7-fluoro-N-(4-(hydroxymethyl)tetrahydro-2H-pyran-4-yl)-5-((2-methoxypyridin-3-yl)methoxy)-2-methylbenzofuran-3-carboxamide] the IC50 was 1000 to 20000 nM.
`Cc1ncc(COc2ccc3oc(C)c(C(=O)NC4COCC4O)c3c2)s1` (single isomer, unassigned) [386 - En 1] was tested, and the IC50 was at most 1000 nM.
For `Cc1ncsc1COc1ccc2oc(C)c(C(=O)NC(C)C(=O)N(C)CCO)c2c1` (single isomer, unassigned) [396 - En 1], the IC50 was at most 1000 nM.
With `Cc1ncc(COc2ccc3oc(C)c(C(=O)N[C@@H](CO)C(=O)N4CCCC4)c3c2)s1` [cpd 307, (S)-N-(3-hydroxy-1-oxo-1-(pyrrolidin-1-yl)propan-2-yl)-2-methyl-5-((2-methylthiazol-5-yl)methoxy)benzofuran-3-carboxamide] the IC50 was 1000 to 20000 nM.
`Cc1oc2ccc(OCc3cccnc3O)cc2c1C(=O)NC1COCC1O` (centres unmarked) [350 - En 1] gave an IC50 of at most 1000 nM.
With `Cc1ncsc1COc1ccc2oc(C)c(C(=O)NC3(CO)CC3)c2c1F` [cpd 327, 4-fluoro-N-(1-(hydroxymethyl)cyclopropyl)-2-methyl-5-((4-methylthiazol-5-yl)methoxy)benzofuran-3-carboxamide] the IC50 was 1000 to 20000 nM.

Same assay, conditions: PS (50 μM) stimulated, cpd 001-199
In the case of `Cc1oc2ccc(OCc3ccc(C(F)(F)F)o3)cc2c1C(=O)O` [cpd 018, 2-methyl-5-((5-(trifluoromethyl)furan-2-yl)methoxy)benzofuran-3-carboxylic acid], the IC50 is reported as 1000 to 20000 nM.
Compound `Cc1ccncc1COc1ccc2oc(C)c(C(=O)NC3(CO)CCOCC3)c2c1` [cpd 052, N-(4-(hydroxymethyl)tetrahydro-2H-pyran-4-yl)-2-methyl-5-((4-methylpyridin-3-yl)methoxy)-benzofuran-3-carboxamide] has an IC50 of 1000 to 20000 nM.
With `Cc1oc2ccc(OCc3cccnc3Cl)cc2c1C(=O)NC1CCN(C(=O)OC(C)(C)C)CC1(F)F` (centres unmarked) [cpd 092, tert-butyl 4-(5-((2-chloropyridin-3-yl)methoxy)-2-methylbenzofuran-3-carboxamido)-3,3-difluoro-piperidine-1-carboxylate] the IC50 was 1000 to 20000 nM.
Compound `Cc1ncsc1COc1cc(C)c2oc(C)c(C(=O)NC3(CO)CCOCC3)c2c1` [compound 186, N-(4-(hydroxymethyl)tetrahydro-2H-pyran-4-yl)-2,7-dimethyl-5-((4-methylthiazol-5-yl)methoxy)benzofuran-3-carboxamide] has an IC50 of 1000 to 20000 nM.
`Cc1oc2c(Cl)cc(OCc3cccnc3C(F)(F)F)cc2c1C(=O)NC1CCNCC1(F)F` (single isomer, unassigned) [184 - En 1] gave an IC50 of 1000 to 20000 nM.
`Cc1ncsc1COc1ccc2oc(C)c(C(=O)NC3CN(CC(F)(F)F)CC3(F)F)c2c1` (single isomer, unassigned) [155 - En 2, N-(4,4-difluoro-1-(2,2,2-trifluoroethyl)pyrrolidin-3-yl)-2-methyl-5-((4-methylthiazol-5-yl)me-thoxy)benzofuran-3-carboxamide] was tested, and the IC50 was at most 1000 nM.
`Cc1oc2ccc(OCc3cccnn3)cc2c1C(=O)O` [cpd 007, 2-methyl-5-(pyridazin-3-ylmethoxy)benzofuran-3-carboxylic acid] gave an IC50 of 1000 to 20000 nM.
`Cc1oc2ccc(OCc3nccs3)cc2c1C(=O)NC1CCNCC1(F)F` (centres unmarked) [cpd 050, N-(3,3-difluoropiperidin-4-yl)-2-methyl-5-(thiazol-2-ylmethoxy)benzofuran-3-carboxamide] was tested, and the IC50 was at most 1000 nM.
Work on `Cc1ncsc1COc1ccc2oc(C(F)F)c(C(=O)NC3(CO)CCOCC3)c2c1` [cpd 197, 2-(difluoromethyl)-N-(4-(hydroxymethyl)tetrahydro-2H-pyran-4-yl)-5-((4-methylthiazol-5-yl)-methoxy)benzofuran-3-carboxamide] yielded an IC50 of 1000 to 20000 nM.
`Cc1oc2ccc(OCc3cncs3)cc2c1C(=O)O` [cpd 014, 2-methyl-5-(thiazol-5-ylmethoxy)benzofuran-3-carboxylic acid] showed an IC50 of 1000 to 20000 nM.
`Cc1oc2c(C)cc(OCc3cccnc3C(F)(F)F)cc2c1C(=O)NC1CCNCC1(F)F` (single isomer, unassigned) [183 - En 1, N-(3,3-difluoropiperidin-4-yl)-2,7-dimethyl-5-((2-(trifluoromethyl)pyridin-3-yl)methoxy)benzofuran-3-carboxamide] showed an IC50 of 1000 to 20000 nM.
`Cc1oc2ccc(OCc3cnco3)cc2c1C(=O)O` [cpd 002, 2-methyl-5-(oxazol-5-ylmethoxy)benzofuran-3-carboxylic acid] was tested, and the IC50 was at least 20000 nM.
For `Cc1oc2ccc(OCc3ccsc3)cc2c1C(=O)O` [cpd 011, 2-methyl-5-(thiophen-3-ylmethoxy)benzofuran-3-carboxylic acid], the IC50 was 1000 to 20000 nM.
In the case of `Cc1ncsc1COc1cc(C#N)c2oc(C)c(C(=O)NC3(CO)CCOCC3)c2c1` [compound 188, 7-cyano-N-(4-(hydroxymethyl)tetrahydro-2H-pyran-4-yl)-2-methyl-5-((4-methylthiazol-5-yl)methoxy)benzofuran-3-carboxamide], the IC50 is reported as 1000 to 20000 nM.
Work on `Cc1cccnc1COc1ccc2oc(C)c(C(=O)NC3CCN(C(=O)OC(C)(C)C)CC3(F)F)c2c1` (centres unmarked) [cpd 088, tert-butyl 3,3-difluoro-4-(2-methyl-5-((3-methylpyridin-2-yl)methoxy)benzofuran-3-carbox-amido)piperidine-1-carboxylate] yielded an IC50 of 1000 to 20000 nM.
Work on `Cc1oc2cc(C#N)c(OCc3cccnc3C(F)(F)F)cc2c1C(=O)NC1CCNCC1(F)F` (single isomer, unassigned) [195 - En 2, 6-cyano-N-(3,3-difluoropiperidin-4-yl)-2-methyl-5-((2-(trifluoromethyl)pyridin-3-yl)methoxy)-benzofuran-3-carboxamide] yielded an IC50 of 1000 to 20000 nM.
`COc1ncccc1COc1ccc2oc(C)c(C(=O)O)c2c1` [cpd 100, 5-((2-methoxypyridin-3-yl)methoxy)-2-methylbenzofuran-3-carboxylic acid] showed an IC50 of 1000 to 20000 nM.
Work on `Cc1oc2ccc(OCc3ccncc3)cc2c1C(=O)N[C@H]1CCNC1` [cpd 021, (S)-2-methyl-5-(pyridin-4-ylmethoxy)-N-(pyrrolidin-3-yl)benzofuran-3-carboxamide] yielded an IC50 of 1000 to 20000 nM.

Same assay, conditions: PS (50 μM) stimulated, cpds. 400-499
Compound `Cc1ccc(COc2ccc3oc(C)c(C(=O)NC(C)(CO)C(N)=O)c3c2)cn1` (single isomer, unassigned) [464 - En 1] has an IC50 of at most 1000 nM.
`Cc1oc2ccc(OCc3nccs3)cc2c1C(=O)NC1CCN(CCO)C1=O` (single isomer, unassigned) [407 - En 1] showed an IC50 of at most 1000 nM.
`COCC(NC(=O)c1c(C)oc2ccc(OCc3scnc3C)cc12)C(N)=O` (single isomer, unassigned) [467 - En 1] gave an IC50 of at most 1000 nM.
Compound `Cc1ncsc1COc1ccc2oc(C)c(C(=O)NC(CN(C)C3CC3)C(N)=O)c2c1` (single isomer, unassigned) [446 - En 1] has an IC50 of at most 1000 nM.

Same assay, conditions: PS (50 μM) stimulated, cpds. 500-599
`Cc1oc2ccc(OCc3cccc(O)n3)cc2c1C(=O)NC1CCNCC1(F)F` (single isomer, unassigned) [569 - En 2, N-(3,3-difluoropiperidin-4-yl)-2-methyl-5-((6-oxo-1,6-dihydropyridin-2-yl)methoxy)benzofuran-3-carboxamide] gave an IC50 of at least 20000 nM.
Work on `Cc1ncc(COc2ccc3oc(C)c(C(=O)NC4(C(N)=O)CCCOC4)c3c2)s1` (single isomer, unassigned) [590 - En 1] yielded an IC50 of at most 1000 nM.

Same assay, conditions: PS (50 μM) stimulated, cpds. 600-666
`Cc1cnc(COc2ccc3oc(C)c(C(=O)NC4(CO)CCOCC4)c3c2)cn1` [cpd 619, N-(4-(hydroxymethyl)tetrahydro-2H-pyran-4-yl)-2-methyl-5-((5-methylpyrazin-2-yl)methoxy)benzofuran-3-carboxamide] showed an IC50 of 1000 to 20000 nM.
For `Cc1oc2ccc(OCc3ccnn3C)cc2c1C(=O)NC1COCC1O` (single isomer, unassigned) [656 - En 2], the IC50 was 1000 to 20000 nM.
Work on `CNC(=O)C(CO)NC(=O)c1c(C)oc2ccc(OCc3ccccn3)cc12` (single isomer, unassigned) [601 - En 2] yielded an IC50 of at most 1000 nM.
Work on `NC(=O)c1oc2ccc(OCc3cccnc3C(F)(F)F)cc2c1C(=O)NC1CCNCC1(F)F` (single isomer, unassigned) [657 - En 1, N3-(3,3-difluoropiperidin-4-yl)-5-((2-(trifluoromethyl)pyridin-3-yl)methoxy)benzofuran-2,3-dicarboxamide] yielded an IC50 of at least 20000 nM.
For `Cc1oc2ccc(OCc3ccc4nccn4c3)cc2c1C(=O)NC1(CO)CCOCC1` [cpd 633, N-(4-(hydroxymethyl)tetrahydro-2H-pyran-4-yl)-5-(imidazo[1,2-a]pyridin-6-ylmethoxy)-2-methylbenzofuran-3-carboxamide], the IC50 was 1000 to 20000 nM.

Same assay, conditions: PS (50 μM) stimulated, cpds. 667-751
In the case of `Cc1ncsc1COc1ccc2oc(C)c(C(=O)NC3(CO)CCNC3)c2c1` (single isomer, unassigned) [728 - En 1], the IC50 is reported as 1000 to 20000 nM.
`Cc1oc2ccc(OCc3cccnc3C(F)F)cc2c1C(=O)NC1(CO)CCNC1=O` (single isomer, unassigned) [736 - En 1] was tested, and the IC50 was at most 1000 nM.
